According to patent US10011568B2, “Cyclohexyl pyridine derivative” (priority 2014, dated 2018):

How the values were obtained:
[1] = molecular target: T1, human NK1 receptor (Homo sapiens (Human), UniProt P25103); test: Inhibitory effect on human NK1 receptor (substance P-induced increase in intracellular calcium concentration); format: cell-based; conditions: substance P 1 μM, compound 0.1 μM; read-out: SPRR (%), Substance P-Response Remaining (intracellular calcium concentration)
Description: Inhibitory Effect on Human NK1 Receptor
(1) Preparation of Human NK1 Receptor-Expressing Cells
Human NK1 receptor-expressing cells were prepared by the same methods as those described in 2-3 of Test Example 1.
(2) Study on Inhibitory Effect on Increase in Intracellular Calcium Concentration
The human NK1 receptor-expressing cells were washed with 300 μL/well of a washing solution (20 mM HEPES/Hank's Balanced Salt Solution (HBSS) pH 7.3). A fluorescent calcium indicator (Fluo-4 Direct Calcium Assay Kit, Life Technologies, containing 0.42 mM probenecid and 0.1% bovine serum albumin, prepared according to the protocol of the product) was added to the wells at 150 μL/well, and the plate was incubated at 37° C. for 30 minutes in an incubator. Then. DMSO solutions of a test compound, which were prepared at an 80-time higher concentration using 100% dimethyl sulfoxide (DMSO), were added to the wells at 2.5 μL/well (final concentrations of 0.1, 1 and 10 μM), and the solutions were mixed. Then, the plate was further incubated at […] for 30 minutes in an incubator. After 30 minutes, the intracellular calcium concentrations were measured immediately.
The intracellular calcium concentrations were each measured as a fluorescent signal using FDSS (registered trademark) 7000 (Hamamatsu Photonics). A substance P (Peptide Institute. Inc.) solution which was prepared at 0.4 μM or 4 μM using an assay buffer (20 mM HEPES/Hank's Balanced Salt Solution (HBSS) pH 7.3, containing 0.1% bovine serum albumin) was added automatically to each well at 50 μL/well (final concentration of 0.1 or 1 μM) 10 seconds after starting reading, and the fluorescent signal was measured up to 120 seconds.
The intracellular calcium concentration (%) of the cells to which a test compound was added was calculated by the equation below, where the fluorescent signal of the group to which the vehicle (DMSO) was added was regarded as 100%, and the fluorescent signal before the addition of substance P was regarded as 0%. Intracellular calcium concentration (%)—(Fluorescent signal of test compound addition group)/(Fluorescent signal of vehicle addition group)×100
The intracellular calcium concentration (%) calculated was regarded as the remaining agonist activity of substance P (Substance P-Response Remaining: SPRR). In the table, Ex. No. means the Example number. SPRR (%) is the value obtained when the concentration of substance P was 1 μM and the concentration of the compound was 0.1 μM.

[2] = molecular target: human CYP3A4 (Homo sapiens (Human), UniProt P08684); test: Inhibitory effect on CYP3A4; format: in vitro ADME; conditions: 30-minute pre-incubation, Luciferin-IPA substrate; read-out: IC50 (μM), CYP3A4 inhibition
Description: Inhibitory Effect on CYP3A4
Enzyme reaction was performed by incubating in a potassium phosphate buffer solution (pH 7.4) containing 1 nM to 20 μM test compound, 3.2 mM magnesium chloride, 0.2 pmol human CYP3A4 (BD Biosciences), 0.5 mM reduced nicotinamide adenine dinucleotide phosphate (NADPH) and 3 μM Luciferin-IPA (Promega) at 37° C. for 10 minutes. The volume of the reaction solution was 50 μL/well. The 30-minute pre-incubation group was incubated at 37° C. for 30 minutes before adding tire substrate, the Luciferin-IPA solution (12.5 μL/well). At the end of the enzyme reaction, 50 μL/well of a Luciferin detection reagent (Promega) was added to the wells, and the plate was left at room temperature for 20 minutes. Then, the emission intensities were measured with Infinite M1000 (TECAN). The enzyme activities (%) relative to the value of the group to which the test compound was not added were calculated.

[3] = Measurement of drug concentrations in the brain after foot-tapping; format: in vivo; conditions: male gerbil, 0.1 mg/kg iv, after foot-tapping was finished
Description: (§1) A male gerbil (Japan SLC) was anesthetized with isoflurane, and 0.1 mg/kg of a test compound was administered from the jugular vein. After four hours. GR73632 (5 pmol/5 μl saline), which is an NK1 receptor agonist, was administered into the cerebral ventricle at the part 1 mm lateral to and 4.5 mm below the bregma in the head, under anesthesia with isoflurane. After the administration, the gerbil was moved to an observation cage, and the foot-tapping period during 30 minutes after the recovery of the righting reflex was measured. The foot-tapping inhibition rate (%) of each test compound was calculated by the following equation. Foot-tapping inhibition rate (%)−{1−(Fool-tapping period when test compound was administered)/(Foot-tapping period when solvent was administered)}×100 (2) Measurement of Drug Concentrations
After foot-tapping was finished, laparotomy was performed immediately under anesthesia with ether, and a blood sample was taken from the abdominal vena cava. At the same lime, the brain was extracted. Through a quantitative analysis using liquid chromatography-mass spectrometry (LC/MS), the concentrations of the test compound in the plasma and the brain were measured.
(§2) In the table, Ex. No. means the Example number. Inhibition (%) is the loot-tapping inhibition rate, and Cone. (nM) is the drug concentration in the brain.

[4] = molecular target: T1, human NK1 receptor; test: Affinity for human NK1 receptor (125I-substance P receptor binding test, membrane fraction); conditions: membrane fraction of human NK1 receptor-expressing 293T cells; read-out: IC50 (nM), concentration required for 50% inhibition of 125I-substance P binding
Description: Affinity for Human NK1 Receptor
(3) Measurement of Binding Affinity to Human NK1 Receptor
(3-1) Preparation of Membrane Fraction from Human NK1 Receptor-Expressing Cells
Human NK1 receptor-expressing cells were prepared in a 175 cm^2 culture flask (Nippon Becton Dickinson). The formation of a complex of the human NK1 receptor expression plasmid and Lipofectamine 2000 was performed by calculating the culture area ratio and increasing the scale of the method described in the above 2-4 by the ratio. The human NK1 receptor-expressing cells were collected in a buffer solution for the membrane fraction preparation (50 mM Tris (Wako Pure Chemical), 120 mM sodium chloride (Wako Pure Chemical Industries), 5 mM potassium chloride (Wako Pure Chemical Industries), 1 mM ethylenediaminetetraacetic acid (Sigma), 0.002 mg/mL chymostatin (Peptide Institute), 0.04 mg/bacitracin (Wako Pure Chemical Industries), 0.005 mg/mL phosphoramidon (Peptide Institute) and 0.5 mM phenylmethylsulfonyl fluoride (Wako Pure Chemical Industries), pH7.4) and centrifuged at 1,880 g for 10 minutes, and the cell sediment was suspended in the buffer solution for the membrane fraction preparation. After freezing and thawing the cells once, the cells were homogenized using a Dounce-type homogenizer (cooled on ice, 1000 rpm, 20 times) The homogenized cell suspension was centrifuged at 20,000 rpm for 10 minutes, and the supernatant was removed to obtain cell sediment. The cell sediment was suspended again in the buffer solution for the membrane fraction preparation and homogenized using a Dounce-type homogenizer (cooled on ice, 1000 rpm, 30 times). The cell suspension was centrifuged at 20,000 rpm for 10 minutes, and the supernatant was removed to obtain cell sediment. The same homogenization and centrifugation were repeated again, and final cell sediment was obtained. The final cell sediment was suspended in a buffer solution for the receptor binding test (50 mM Tris (Wako Pure Chemical Industries). 3 mM manganese chloride (Wako Pure Chemical Industries), 0.002 mg/mL chymostatin (Peptide Institute), 0.04 mg/bacitracin (Wako Pure Chemical Industries) and 0.02% bovine serum albumin (Sigma), pH 7.4), and the protein concentration was measured using BCA Protein Assay Kit (Pierce).
(3-2) Receptor Binding Test
The buffer solution for the receptor binding test was dispensed to the wells of a 96-well assay plate (Greiner) at 22.5 μL/well. DMSO solutions of a test compound, which were prepared at an 80-time higher concentration using 100% dimethyl sulfoxide (DMSO), were added to the wells at 2.5 μL/well (final concentrations of 1 nM to 100 nM), and the solutions were mixed. As a radiolabeled ligand, ^125I-substance P (Substance P, [^125I]Tyr^8-, Perkin Elmer) was used. ^125I-substance P was diluted with the buffer solution for the receptor binding test to a concentration resulting in 125 pmol/25 μL/well and added to the 96-well assay plate, and the solutions were mixed. The membrane fraction prepared from the human NK1 receptor-expressing cells was diluted with the buffer solution for the receptor binding test to a concentration resulting in 8 to 10 μg/well, suspended until the suspension became in such a homogenous state that the suspension could flow through a 27G injection needle smoothly and then added to the 96-well assay plate at 150 μL/well. Then, the plate was incubated at room temperature for 60 minutes while shaking the plate. The reaction solutions were suction-filtered through a multiscreen 96-well filter plate (Millipore) which had been pre-treated with 0.3% polyethyleneimine, and the reaction was terminated by washing with a washing solution (50 mM Tris and 0.02% bovine serum albumin, pH 7.4) four times. The bottom of the microplate was dried at 60° C., and then 100 μL/well of MicroScint 20 (PerkinElmer) was dispensed to the wells. The top of the plate was sealed with TopSeal A (PerkinElmer), and the plate was shaken for 5 to 10 minutes. […]

[5] = molecular target: NK1 receptor (Meriones unguiculatus (Mongolian jird) (Gerbillus unguiculatus), UniProt Q5DUB1); test: Effect on foot-tapping induced by NK1 receptor agonist GR73632; format: in vivo; conditions: male gerbil, 0.1 mg/kg iv, GR73632 after four hours
Description: (1) Effect on Foot-Tapping
The test compound solution was prepared by dissolving the test compound in a vehicle (a mixture of 50% N,N-dimethylacetamide (Wako Pure Chemical Industries), 30% propylene glycol (Wako Pure Chemical Industries). 4% 2-hydroxypropyl-β-cyclodextrin (Wako Pure Chemical Industries) and 16% distilled water).
as §1, §2

Sequence of NK1 receptor (Q5DUB1 whole entry): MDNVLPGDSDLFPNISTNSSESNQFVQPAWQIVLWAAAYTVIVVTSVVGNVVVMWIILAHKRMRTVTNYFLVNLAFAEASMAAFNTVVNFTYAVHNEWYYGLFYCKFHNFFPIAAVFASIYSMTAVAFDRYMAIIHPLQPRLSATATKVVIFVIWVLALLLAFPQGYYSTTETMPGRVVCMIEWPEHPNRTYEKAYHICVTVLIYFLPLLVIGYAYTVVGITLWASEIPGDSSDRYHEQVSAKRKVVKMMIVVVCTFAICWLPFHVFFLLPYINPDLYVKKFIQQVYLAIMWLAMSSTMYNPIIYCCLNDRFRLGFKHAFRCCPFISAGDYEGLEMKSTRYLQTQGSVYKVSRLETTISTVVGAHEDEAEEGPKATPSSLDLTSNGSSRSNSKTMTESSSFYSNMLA
Sequence of human CYP3A4 (P08684 whole entry): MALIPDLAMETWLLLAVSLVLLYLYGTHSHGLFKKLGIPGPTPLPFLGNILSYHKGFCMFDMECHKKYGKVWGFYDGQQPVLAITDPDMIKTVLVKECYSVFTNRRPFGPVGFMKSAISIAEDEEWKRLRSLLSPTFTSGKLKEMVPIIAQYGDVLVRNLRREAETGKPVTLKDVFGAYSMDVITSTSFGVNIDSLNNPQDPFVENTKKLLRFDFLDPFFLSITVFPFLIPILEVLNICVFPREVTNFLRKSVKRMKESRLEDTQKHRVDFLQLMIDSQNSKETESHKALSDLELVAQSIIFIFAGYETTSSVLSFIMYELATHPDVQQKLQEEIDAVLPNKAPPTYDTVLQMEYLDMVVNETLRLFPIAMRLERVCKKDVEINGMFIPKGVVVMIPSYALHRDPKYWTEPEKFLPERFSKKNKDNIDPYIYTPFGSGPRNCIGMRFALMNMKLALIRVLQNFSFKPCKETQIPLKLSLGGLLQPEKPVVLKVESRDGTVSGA
T1 sequence (P25103 whole entry): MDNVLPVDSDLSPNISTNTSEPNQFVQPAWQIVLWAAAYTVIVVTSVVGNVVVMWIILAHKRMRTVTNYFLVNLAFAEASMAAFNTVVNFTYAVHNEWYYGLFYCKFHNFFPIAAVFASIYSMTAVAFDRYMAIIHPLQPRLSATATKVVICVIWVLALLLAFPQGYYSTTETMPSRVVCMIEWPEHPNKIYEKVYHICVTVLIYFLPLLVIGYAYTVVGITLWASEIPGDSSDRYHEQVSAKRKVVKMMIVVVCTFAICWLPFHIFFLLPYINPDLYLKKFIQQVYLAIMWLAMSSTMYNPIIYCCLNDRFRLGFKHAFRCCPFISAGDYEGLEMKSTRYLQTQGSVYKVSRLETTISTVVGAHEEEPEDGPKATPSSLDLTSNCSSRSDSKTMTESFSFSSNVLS

SMILES | remaining activity at 0.1 µM [1] [%] | IC50 [2] [µM] | Conc. (nM), drug concentration in the brain [3] [nM] | IC50 [4] [nM] | Inhibition (%), foot-tapping inhibition rate [5] [%]
Cc1cc(F)ccc1-c1cc(C2CCC(CCC(=O)O)CC2)ncc1N(C)C(=O)C(C)(C)c1cc(C(F)(F)F)cc(C(F)(F)F)c1 (stereo not shown) [Example 2, 3-{4-[5-{[2-(3,5-Bistrifluoromethylphenyl)-2-methylpropionyl]methylamino}-4-(4-fluoro-2-methylphenyl)pyridin-2-yl]cyclohexyl}propionic Acid] | 7.5 | 6.8 | 19 | – | –
Cc1cc(F)ccc1-c1cc(C2CCC(CC(=O)O)CC2)ncc1N(C)C(=O)C(C)(CO)c1cc(C(F)(F)F)cc(C(F)(F)F)c1 (stereo not shown) [Example 5, {4-[5-{[2-(3,5-Bistrifluoromethylphenyl)-3-hydroxy-2-methylpropionyl]methylamino}-4-(4-fluoro-2-methylphenyl)pyridin-2-yl]cyclohexyl}acetic Acid] | 26 | 13 | – | 0.98 | –
Cc1cc(F)ccc1-c1cc(C2CCC(O)(CC(=O)O)CC2)ncc1N(C)C(=O)C(C)(C)c1cc(C(F)(F)F)cc(C(F)(F)F)c1 (stereo not shown) [Example 6, {4-[5-{[2-(3,5-Bistrifluoromethylphenyl)-2-methylpropionyl]methylamino}-4-(4-fluoro-2-methylphenyl)pyridin-2-yl]-1-hydroxycyclohexyl}acetic Acid] | 21 | 6.1 | – | 1 | –
Cc1cc(F)ccc1-c1cc([C@H]2CC[C@@H](C(C)(C)C(=O)O)CC2)ncc1N(C)C(=O)C(C)(C)c1cc(C(F)(F)F)cc(C(F)(F)F)c1 [Example 12, cis-2-{4-[5-{[2-(3,5-Bistrifluoromethylphenyl)-2-methylpropionyl]methylamino}-4-(4-fluoro-2-methylphenyl)pyridin-2-yl]cyclohexyl}-2-methylpropionic Acid] | 53 | 2.2 | – | 4.46 | –
Cc1cc(F)ccc1-c1cc(C2CCC(C)(CC(=O)O)CC2)ncc1N(C)C(=O)C(C)(C)c1cc(C(F)(F)F)cc(C(F)(F)F)c1 (stereo not shown) [Example 15, {4-[5-{[2-(3,5-Bistrifluoromethylphenyl)-2-methylpropionyl]methylamino}-4-(4-fluoro-2-methylphenyl)pyridin-2-yl]-1-methylcycloheyl}acetic Acid] | 3.7 | – | 39 | – | 100
Cc1cc(F)ccc1-c1cc(C2CCC(CC(=O)O)CC2)nc(Cl)c1N(C)C(=O)C(C)(C)c1cc(C(F)(F)F)cc(C(F)(F)F)c1 (stereo not shown) [Example 17, {4-[5-{[2-(3,5-Bistrifluoromethylphenyl)-2-methylpropionyl]methylamino}-6-chloro-4-(4-fluoro-2-methylphenyl)pyridin-2-yl]cyclohexyl}acetic Acid] | – | 3.3 | 57 | – | –
Cc1cc(F)ccc1-c1cc(C2CCC(CC(=O)O)CC2)nc(C)c1N(C)C(=O)C(C)(C)c1cc(C(F)(F)F)cc(C(F)(F)F)c1 (stereo not shown) [Example 18, {4-[5-{[2-(3,5-Bistrifluoromethylphenyl)-2-methylpropionyl]methylamino}-4-(4-fluoro-2-methylphenyl)-6-methylpyridin-2-yl]cyclohexyl}acetic Acid] | – | 4.9 | 47 | 6.45 | 100
Cc1cc(F)ccc1-c1cc(C2CCC(CC(=O)O)CC2)nc(CO)c1N(C)C(=O)C(C)(C)c1cc(C(F)(F)F)cc(C(F)(F)F)c1 (stereo not shown) [Example 19, {4-[5-{[2-(3,5-Bistrifluoromethylphenyl)-2-methylpropionyl]methylamino}-4-(4-fluoro-2-methylphenyl)-6-hydroxymethylpyridin-2-yl]cyclohexyl}acetic Acid] | 26 | – | 24 | 4.96 | 95
